The subject of one assay is p-pRb/S780. The assay is described as follows: p-pRb/S780 ELISA Cellular Assay (CDK4 ELISA assay). It is filed as cell-based. The settings on record: Table 2; cells treated for 24 hrs; read-out: p_pRb Cap EL/ IC50_ppRbinh. The method, then:
Biological Activity p-pRb/S780 ELISA Cellular Assay
Maxisorp plates (Nunc 442404) are coated with 50 ul of 1 ug/mL total phospholated Retinoblast Protein (pRb) antibody (4H1 Cell Signaling 9309L) diluted in DPBS (Phosphate Buffered Saline) overnight at 4° C. The next day plates are blocked with Superblock in TBST (Pierce 37535) for one hour to overnight—changing block once during that time. Cells are plated at 50-60% confluency in a 96 well plate (Corning 3585) in 100 uL complete media (media containing fetal bovine serum (Gibco 1600-044), 2 mM L-Glutamine (Gibco 25030), and 1% Penicillin/Streptomycin (Gibco 15140-122) and grown overnight in a humidified chamber at 37° C. and 5% CO2. Compounds (in DMSO) are diluted in media to create a 7 point dilution series of compound with concentrations ranging from 110 uM to 0.027 uM. 10 ul of the diluted compounds are added to the cells, with final concentrations on cells ranging from 10 uM to 0.002 uM. Cells are treated for 24 hrs in a humidified chamber at 37° C. and 5% CO2. Following compound incubation, cells are lysed with 40 uL/well lysis buffer (50 mM Tris-HCL pH 7.5 (Invitrogen 15567-027), 120 mM NaCl (Promega V4221), 1 mM EDTA (Gibco 15575-038), 6 mM EGTA (Fisher 02783-100), 1% Nonidet P40 (Fluka R02771). Plates are placed on Titerplate shaker (Labline model 4625) for 5 minutes at 4° C. to lyse cells. After lysis, 10 ul of cell lysate and 50 ul 1×PBS/10% Superblock (Gibco 10010 and Pierce 37535) is added to each well of the precoated and blocked Maxisorp plate and allowed to bind at room temperature for 2 hours on Oribtron Rotator II (Boekel Industries Model 260250). Plates are then washed 3× with 1×TBST (Teknova T9201) using Biotek platewasher equipped with a Biostack. The final wash is not aspirated. The final wash is removed by flicking off and tapping plate on paper towels. ppRbS780 antibody (Cell Signaling 9307L) is diluted 1:1000 in 1×PBS/10% Superblock (Gibco 10010 and Pierce 37535) and 50 ul is added to each well. Plates are then incubated 1 hour on Oribtron Rotator II (Boekel Industries Model 260250). Plates are then washed as previously described. Goat anti-rabbit HRP (Promega W401B) is diluted 1:2500 1×PBS/10% Superblock (Gibco 10010 and Pierce 37535) and 50 ul is added to each well. Plates are then incubated 30 minutes on Oribtron Rotator II. Plates are then washed as previously described. 50 uL Ultra TMB ELISA (Pierce 34028) is then added to each well. Plates are incubated 5-20 minutes until blue color develops. 50 ul 2M Sulfuric acid (Mallinckrodt 2468-46) is then added to each well to stop the reaction. Absorbance at 450 nm for each plate is read on Spectramax Plus (Molecular Devices).
For orientation: In an ELISA, binding on a coated surface is turned into a signal by an enzyme label.

A further assay concerns the target CDK2 cyA (Homo sapiens, UniProt P24941). Put plainly: CDK2 cyA IMAP. It is filed as biochemical. The settings on record: Table 2; read-out: CDK2cyA IMAP/ IC50.
Another assay has as its target CDK4 (Homo sapiens, UniProt P11802). Put plainly: CDK4 HTRF. The format is biochemical. As to conditions: Table 2; read-out: CDK4 HTRF/ IC50. For orientation: In TR-FRET formats the signal depends on donor and acceptor labels being close together.
For a further assay, the target named is hCDK1/B (Homo sapiens, UniProt P06493). The assay is described as follows: hCDK1/B. The settings on record: Table 2. The format is biochemical.
Chain of hCDK1/B (P06493 whole entry): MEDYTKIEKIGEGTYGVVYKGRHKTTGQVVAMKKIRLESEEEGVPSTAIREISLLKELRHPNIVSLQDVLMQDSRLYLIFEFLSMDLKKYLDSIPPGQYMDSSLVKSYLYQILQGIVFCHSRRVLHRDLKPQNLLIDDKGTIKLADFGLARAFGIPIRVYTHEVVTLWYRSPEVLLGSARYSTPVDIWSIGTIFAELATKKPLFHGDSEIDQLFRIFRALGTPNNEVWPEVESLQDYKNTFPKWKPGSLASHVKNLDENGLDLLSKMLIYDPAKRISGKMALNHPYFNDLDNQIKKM
Chain of hCDK1/B (P14635 whole entry partner): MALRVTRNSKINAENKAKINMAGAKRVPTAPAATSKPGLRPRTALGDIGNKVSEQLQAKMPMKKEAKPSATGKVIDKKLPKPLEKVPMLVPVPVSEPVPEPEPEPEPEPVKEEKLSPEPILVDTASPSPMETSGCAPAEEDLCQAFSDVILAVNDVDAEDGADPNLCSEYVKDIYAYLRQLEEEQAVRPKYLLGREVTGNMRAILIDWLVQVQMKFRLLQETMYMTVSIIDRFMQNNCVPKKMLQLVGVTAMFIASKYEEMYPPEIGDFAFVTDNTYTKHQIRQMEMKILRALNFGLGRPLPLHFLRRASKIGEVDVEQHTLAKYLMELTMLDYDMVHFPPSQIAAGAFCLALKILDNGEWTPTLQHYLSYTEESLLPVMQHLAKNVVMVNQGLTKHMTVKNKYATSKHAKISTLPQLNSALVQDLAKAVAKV

Chain of CDK4 (P11802 whole entry): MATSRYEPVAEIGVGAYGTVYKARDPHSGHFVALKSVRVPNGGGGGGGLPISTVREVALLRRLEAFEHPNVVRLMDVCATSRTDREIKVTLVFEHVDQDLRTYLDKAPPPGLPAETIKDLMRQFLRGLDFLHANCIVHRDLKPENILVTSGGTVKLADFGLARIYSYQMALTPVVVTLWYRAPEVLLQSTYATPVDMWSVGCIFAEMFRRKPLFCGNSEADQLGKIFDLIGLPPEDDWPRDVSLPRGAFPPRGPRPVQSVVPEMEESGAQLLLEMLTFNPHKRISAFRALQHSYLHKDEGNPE
Chain of CDK4 (P24385 whole entry partner): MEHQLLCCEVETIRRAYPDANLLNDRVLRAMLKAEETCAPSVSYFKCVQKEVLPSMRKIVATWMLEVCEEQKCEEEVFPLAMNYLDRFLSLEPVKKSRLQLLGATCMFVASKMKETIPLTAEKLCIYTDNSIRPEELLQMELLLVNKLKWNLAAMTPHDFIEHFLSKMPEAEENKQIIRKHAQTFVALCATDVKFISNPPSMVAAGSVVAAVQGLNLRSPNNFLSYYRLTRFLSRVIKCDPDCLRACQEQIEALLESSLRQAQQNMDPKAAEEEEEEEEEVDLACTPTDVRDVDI

Take `COc1ccc(CNc2nccc(-c3c[nH]nc3C)n2)cc1` [Example 100]: the IC50 was < 15 µM with p-pRb/S780, < 15 µM at CDK2 cyA, < 5 µM at CDK4 and < 15 µM against hCDK1/B.

With `Cc1n[nH]cc1-c1ccnc(NC2CCC2)n1` [Example 101], the IC50 with p-pRb/S780 is < 15 µM; at CDK2 cyA, < 5 µM; on CDK4 it was < 1 µM; at hCDK1/B, < 5 µM.

Regarding `Cc1n[nH]cc1-c1ccnc(NCc2ccc3c(c2)OCO3)n1` [Example 102], the IC50 was < 15 µM with p-pRb/S780, < 10 µM on CDK2 cyA, < 5 µM on CDK4 and < 10 µM against hCDK1/B.

Consider `Cc1n[nH]cc1-c1ccnc(NCC2CCCCC2)n1` [Example 103], for which the IC50 with p-pRb/S780 was < 15 µM; at CDK2 cyA, < 10 µM; on CDK4 it was < 5 µM; against hCDK1/B, < 10 µM.

As to `Cc1n[nH]cc1-c1ccnc(NCc2ccncc2)n1` [Example 104], the IC50 with p-pRb/S780 was < 15 µM; on CDK2 cyA, < 15 µM; on CDK4, < 5 µM; at hCDK1/B, < 15 µM.

Take `Cc1n[nH]cc1-c1ccnc(NCC2CCCCCC2)n1` [Example 105]: the IC50 with p-pRb/S780 is < 15 µM; on CDK2 cyA it was < 15 µM; at CDK4, < 5 µM; on hCDK1/B, < 10 µM.

On to `COc1cccc(CNc2nccc(-c3c[nH]nc3C)n2)c1` [Example 107], for which the IC50 is < 15 µM in the assay on p-pRb/S780, ≥ 15 µM at CDK2 cyA, < 10 µM at CDK4 and ≥ 15 µM at hCDK1/B.

On to `COCCCNc1nccc(-c2c[nH]nc2C)n1` [Example 108], for which the IC50 is < 15 µM with p-pRb/S780, ≥ 15 µM at CDK2 cyA, < 5 µM on CDK4 and < 15 µM on hCDK1/B.

As for `Cc1n[nH]cc1-c1ccnc(NCCN2CCCC2)n1` [Example 109], the IC50 with p-pRb/S780 was < 15 µM; on CDK2 cyA, ≥ 15 µM; on CDK4, < 10 µM; on hCDK1/B it was ≥ 15 µM.

On to `CCC(C)Nc1nccc(-c2c[nH]nc2C)n1` (centres unmarked) [Example 110], for which the IC50 in the assay with p-pRb/S780 is < 15 µM; on CDK2 cyA, < 5 µM; at CDK4, < 1 µM; against hCDK1/B it was < 10 µM.

As to `Cc1n[nH]cc1-c1ccnc(NCCN2CCCCC2)n1` [Example 111], the IC50 is < 15 µM with p-pRb/S780, ≥ 15 µM at CDK2 cyA, < 10 µM on CDK4 and ≥ 15 µM against hCDK1/B.

Take `Cc1n[nH]cc1-c1ccnc(NCCC2CCCN2C)n1` (centres unmarked) [Example 113]: the IC50 in the assay on p-pRb/S780 is < 15 µM; at CDK2 cyA it was ≥ 15 µM; at CDK4, < 10 µM; on hCDK1/B it was ≥ 15 µM.

For `Cc1n[nH]cc1-c1ccnc(NC2CCCN(C(=O)OC(C)(C)C)C2)n1` (centres unmarked) [Example 115], the IC50 was < 15 µM in the assay on p-pRb/S780, ≥ 15 µM at CDK2 cyA, < 10 µM at CDK4 and ≥ 15 µM against hCDK1/B.

Turning to `Cc1n[nH]cc1-c1ccnc(NCCc2c[nH]c3ccccc23)n1` [Example 116], the IC50 in the assay on p-pRb/S780 is < 15 µM; at CDK2 cyA it was < 10 µM; at CDK4 it was < 5 µM; on hCDK1/B it was < 5 µM.

`Cc1ccc(CNc2nccc(-c3c[nH]nc3C)n2)cc1` [Example 117]: the IC50 in the assay with p-pRb/S780 was < 15 µM; at CDK2 cyA, ≥ 15 µM; on CDK4, < 10 µM; on hCDK1/B it was ≥ 15 µM.

Regarding `Cc1n[nH]cc1-c1ccnc(NCCCN(C)C)n1` [Example 118], the IC50 in the assay on p-pRb/S780 is < 15 µM; on CDK2 cyA, ≥ 15 µM; on CDK4 it was < 15 µM; on hCDK1/B it was ≥ 15 µM.

Regarding `CCCCNc1nccc(-c2c[nH]nc2C)n1` [Example 119], the IC50 in the assay on p-pRb/S780 was < 15 µM; at CDK2 cyA, < 10 µM; at CDK4, < 5 µM; on hCDK1/B, < 10 µM.

Take `COCCNc1nccc(-c2c[nH]nc2C)n1` [Example 120]: the IC50 was < 15 µM with p-pRb/S780, ≥ 15 µM on CDK2 cyA, < 15 µM on CDK4 and ≥ 15 µM against hCDK1/B.

`Cc1n[nH]cc1-c1ccnc(NCCCO)n1` [Example 121]: the IC50 was < 15 µM in the assay with p-pRb/S780, < 15 µM at CDK2 cyA, < 5 µM at CDK4 and < 15 µM at hCDK1/B.

Regarding `Cc1n[nH]cc1-c1ccnc(NCc2ccco2)n1` [Example 122], the IC50 with p-pRb/S780 is < 15 µM; on CDK2 cyA it was ≥ 15 µM; at CDK4 it was < 10 µM; on hCDK1/B it was ≥ 15 µM.

Regarding `CC(=O)NCCNc1nccc(-c2c[nH]nc2C)n1` [Example 123], the IC50 is < 15 µM in the assay with p-pRb/S780, < 15 µM on CDK2 cyA, < 5 µM at CDK4 and < 15 µM at hCDK1/B.

In the case of `Cc1n[nH]cc1-c1ccnc(NCC2CC2)n1` [Example 124], the IC50 with p-pRb/S780 is < 15 µM; at CDK2 cyA it was < 10 µM; at CDK4 it was < 5 µM; against hCDK1/B it was < 10 µM.

With `Cc1n[nH]cc1-c1ccnc(NCc2ccccn2)n1` [Example 126], the IC50 was < 15 µM in the assay on p-pRb/S780, ≥ 15 µM at CDK2 cyA, < 15 µM on CDK4 and ≥ 15 µM at hCDK1/B.

As to `Cc1n[nH]cc1-c1ccnc(NCc2cccnc2)n1` [Example 127], the IC50 is < 15 µM in the assay with p-pRb/S780, < 10 µM at CDK2 cyA, < 10 µM at CDK4 and < 15 µM on hCDK1/B.

Consider `Cc1n[nH]cc1-c1ccnc(NCCCN2CCCC2)n1` [Example 128], for which the IC50 with p-pRb/S780 was < 15 µM; on CDK2 cyA, ≥ 15 µM; on CDK4, < 15 µM; on hCDK1/B, ≥ 15 µM.

On to `Cc1n[nH]cc1-c1ccnc(NCC(=O)OC(C)(C)C)n1` [Example 129], for which the IC50 was < 15 µM in the assay on p-pRb/S780, ≥ 15 µM on CDK2 cyA, < 15 µM on CDK4 and ≥ 15 µM against hCDK1/B.

For `COc1ccccc1CNc1nccc(-c2c[nH]nc2C)n1` [Example 130], the IC50 in the assay with p-pRb/S780 was < 15 µM; on CDK2 cyA, < 15 µM; at CDK4, < 5 µM; on hCDK1/B it was < 10 µM.

With `Cc1n[nH]cc1-c1ccnc(NCCCN2CCCC2=O)n1` [Example 131], the IC50 in the assay with p-pRb/S780 was < 15 µM; on CDK2 cyA it was ≥ 15 µM; on CDK4, < 15 µM; against hCDK1/B, ≥ 15 µM.

For `COc1cc(CNc2nccc(-c3c[nH]nc3C)n2)cc(OC)c1` [Example 133], the IC50 is < 15 µM in the assay on p-pRb/S780, ≥ 15 µM at CDK2 cyA, < 15 µM at CDK4 and ≥ 15 µM at hCDK1/B.

For the compound `Cc1cc(C)cc(CNc2nccc(-c3c[nH]nc3C)n2)c1` [Example 134], the IC50 is < 15 µM in the assay on p-pRb/S780, ≥ 15 µM at CDK2 cyA, < 5 µM on CDK4 and ≥ 15 µM at hCDK1/B.

In the case of `Cc1n[nH]cc1-c1ccnc(NCc2cc(F)cc(F)c2)n1` [Example 135], the IC50 with p-pRb/S780 was < 15 µM; on CDK2 cyA it was < 5 µM; at CDK4 it was < 1 µM; at hCDK1/B, < 5 µM.

Take `CC(C)c1n[nH]cc1-c1ccnc(NC2CCN(C)CC2)n1` [Example 139]: the IC50 in the assay on p-pRb/S780 is < 5 µM; on CDK2 cyA, < 1 µM; on CDK4, < 0.05 µM; against hCDK1/B, < 0.5 µM.

With `CC(C)c1n[nH]cc1-c1ccnc(NC2CCNCC2)n1` [Example 141], the IC50 with p-pRb/S780 is < 5 µM; at CDK2 cyA, < 1 µM; on CDK4, < 0.05 µM; at hCDK1/B, < 0.5 µM.

For the compound `CCN(CC)CCNc1nccc(-c2c[nH]nc2C(C)C)n1` [Example 144], the IC50 is < 15 µM in the assay with p-pRb/S780, ≥ 15 µM at CDK2 cyA, < 5 µM at CDK4 and ≥ 15 µM against hCDK1/B.

Turning to `CC(C)c1n[nH]cc1-c1ccnc(NCCN(C(C)C)C(C)C)n1` [Example 146], the IC50 with p-pRb/S780 is < 15 µM; at CDK2 cyA it was ≥ 15 µM; on CDK4, < 5 µM; on hCDK1/B it was < 5 µM.
